Data taken from ChEMBL document CHEMBL1177664, “Development of tryptase inhibitors derived from thalidomide” (Bioorg Med Chem, 2010).
The source made the active and inactive calls. The rule behind the calls is not given here.

Tests used:
[1] = (§1) Inhibition of human tryptase-beta after 5 mins by fluorimetric analysis
Homo sapiens [2] = species: Homo sapiens; assay: Inhibition of human tryptase-beta at 30 uM after 5 mins by fluorimetric analysis
[3] = Binding affinity to bovine type 1 trypsin after 3 mins; set-up: species or system Bos taurus
[4] = Binding affinity to human tryptase-beta after 3 mins
Prothrombin = Prothrombin (Bos taurus, UniProt P00735); assay: Binding affinity to bovine thrombin after 3 mins
Homo sapiens [5] = species: Homo sapiens; assay: Competitive inhibition of human tryptase-beta by Lineweaver-Burke plot analysis
Homo sapiens [6] = species: Homo sapiens; assay: as §1

Row | SMILES | IC50 [1] [µM] | inhibition (Homo sapiens [2]) | other results
1 | COc1ccc(N2C(=O)c3ccc(OC(=O)CCc4ccc(N)cc4)cc3C2=O)cc1 | 0.39 |  | 
2 | CN1C(=O)c2ccc(OC(=O)c3cccc(N)c3)cc2C1=O |  | inactive | 
3 | CN1C(=O)c2ccc(OC(=O)CCc3ccc(N)nc3)cc2C1=O | 0.4 |  | Ki [3]: 2.9 µM; Ki [4]: 0.34 µM; Ki (Prothrombin): 7 µM; inhibition (Homo sapiens [5]): Active
4 | CN1C(=O)c2ccc(OC(=O)CCCc3ccc(N)cc3)cc2C1=O |  | inactive | 
5 | Nc1ccc(CCC(=O)Oc2ccc3c(c2)C(=O)N(c2ccc(N)cc2)C3=O)cc1 | 0.82 |  | 
6 | COc1cccc(N2C(=O)c3ccc(OC(=O)CCc4ccc(N)cc4)cc3C2=O)c1 | 0.65 |  | 
7 | CN1C(=O)c2ccc(OC(=O)Cc3cccc(N)c3)cc2C1=O |  | 46% | 
8 | Nc1ccc(CCC(=O)Oc2ccc3c(c2)C(=O)N(c2ccccc2)C3=O)cc1 | 1.3 |  | 
9 | Nc1ccc(CCC(=O)Oc2ccc3c(c2)C(=O)N(c2ccc(C(F)(F)F)cc2)C3=O)cc1 |  | inactive | 
10 | CC(C)(C)c1ccc(N2C(=O)c3ccc(OC(=O)CCc4ccc(N)cc4)cc3C2=O)cc1 |  | inactive | 
11 | CN1C(=O)c2ccc(OC(=O)CCc3ccc(N(C)C)cc3)cc2C1=O |  | inactive | 
12 | CN1C(=O)c2ccc(OC(=O)CCc3ccccc3)cc2C1=O |  | inactive | 
13 | CN1C(=O)c2ccc(OC(=O)CCc3cnc(N)nc3)cc2C1=O | 7.8 |  | 
14 | Nc1ccc(CCC(=O)Oc2ccc3c(c2)C(=O)N(c2ccc(F)cc2)C3=O)cc1 | 1.7 |  | 
15 | CCCN1C(=O)c2ccc(OC(=O)CCc3ccc(N)cc3)cc2C1=O | 1.2 |  | 
16 | CCCCCCN1C(=O)c2ccc(OC(=O)CCc3ccc(N)cc3)cc2C1=O | 1.5 |  | 

Row | SMILES | IC50 [1] [µM] | inhibition (Homo sapiens [2]) | other results
17 | CC(C)N1C(=O)c2ccc(OC(=O)CCc3ccc(N)cc3)cc2C1=O | 1.2 |  | 
18 | CN1C(=O)c2ccc(OC(=O)Cc3ccc(N)cc3)cc2C1=O |  | inactive | 
19 | COc1ccccc1N1C(=O)c2ccc(OC(=O)CCc3ccc(N)cc3)cc2C1=O | 1.1 |  | 
20 | CN1C(=O)c2ccc(OC(=O)c3ccccc3N)cc2C1=O | 1.5 | inactive | 
21 | CN1C(=O)c2ccc(OC(=O)CCc3ccc(N)cc3)cc2C1=O | 1.5 | 98% | Ki [3]: 13 µM; Ki [4]: 1.7 µM; Ki (Prothrombin): 15 µM
22 | CN1C(=O)c2ccc(OC(=O)CCc3cccc(N)c3)cc2C1=O |  | inactive | 
23 | COc1ccc(CCC(=O)Oc2ccc3c(c2)C(=O)N(C)C3=O)cc1 |  | inactive | 
24 | Nc1ccc(CCC(=O)Oc2ccc3c(c2)C(=O)N(C2CCCCC2)C3=O)cc1 | 1.2 |  | 
25 | N#Cc1ccc(N2C(=O)c3ccc(OC(=O)CCc4ccc(N)cc4)cc3C2=O)cc1 | 0.34 |  | Ki [3]: 4.3 µM; Ki [4]: 0.19 µM; Ki (Prothrombin): 8.6 µM; inhibition (Homo sapiens [5]): Active
26 | COc1cc(N)ccc1CCC(=O)Oc1ccc2c(c1)C(=O)N(C)C2=O | 1.8 |  | 
27 | Cc1ccc(N2C(=O)c3ccc(OC(=O)CCc4ccc(N)cc4)cc3C2=O)cc1 | 1.2 |  | 
28 | CN1C(=O)c2ccc(OC(=O)CCc3ccncc3)cc2C1=O | > 30 |  | 
29 | COc1cc(CCC(=O)Oc2ccc3c(c2)C(=O)N(C)C3=O)ccc1N | > 30 |  | 
30 | Nc1ccc(CCC(=O)Oc2ccccc2)cc1 |  | inactive | 
31 | N#Cc1ccc(N2C(=O)c3ccc(OC(=O)CCc4ccc(N)nc4)cc3C2=O)cc1 | 0.078 |  | Ki [3]: 0.88 µM; Ki [4]: 0.044 µM; inhibition (Homo sapiens [6]): Dose-dependent effect; Ki (Prothrombin): 16 µM; inhibition (Homo sapiens [5]): Active
32 | CN1C(=O)c2ccc(OC(=O)c3ccc(N)cc3)cc2C1=O |  | inactive | 
